Values joined by “and” are separate entries in the source; they are usually repeats but may differ in a detail not shown here. Identical values can stand only once.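 Results reflect a 48-hour exposure of cells in 96-well plates to compound at five concentrations. GI50 is the concentration that inhibits growth by half. The concentration for full growth arrest is given as TGI.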 Bounds are passed on as bounds.

This assay has as its system MDA-MB-468 breast. Briefly: inhibition of tumour cell growth, NCI panel, 48 h.
On to `O=C(Nc1ccc(OCc2nnc(-c3ccc(Cl)cc3)o2)c(F)c1)Nc1ccc(Cl)c(Cl)c1`, for which the GI50 is 2990 nM and the TGI came out at 17700 nM.
For `FC(F)(F)c1cc(Nc2cccc(Oc3ccc(NC4=NCCN4)nc3)c2)ccc1Cl` the same measures were 1610 nM and 3440 nM.
With `CC#CC#Cc1cccc(=O)o1`, the GI50 is 1710 nM and the TGI came to 5320 nM.
Taken in the same sequence, the figures for `COc1ccc(/C=C/C(=O)c2ccc(NC(=O)CSc3nnc(-c4ccc(OC)c(OC)c4)n3-c3ccccc3)cc2)cc1` were 1960 nM and 4550 nM.
Take `CC(=O)N1CCN([C@H]2CCC[C@@H](NC(=O)c3cc4c(F)ccc(C)c4[nH]3)C2)CC1`: the GI50 was 9060 nM and the TGI came to 37200 nM.
Taken in the same sequence, the figures for `C[C@@H]1CN(c2ccc3ncc(C#Cc4cncc(C(=O)Nc5ccc(CN6CCN(C)CC6)c(C(F)(F)F)c5)c4)n3n2)C[C@H](C)O1` were 35.5 nM and 136 nM.
For `Cc1cc2nc3c4cc(C=O)ccc4n(CCN(C)C)c3nc2cc1C` the same measures were 1160 nM and 3210 nM.
Taken in the same sequence, the figures for `COC12COC(=O)C1C(c1ccc3c(c1)OCO3)c1cc3c(cc1O2)OCO3` (centres undefined) were 23000 nM and above 100000 nM.
In the case of `Cn1cc(C2=C(c3cn(C)c4ccc(OCc5ccccc5)cc34)C(=O)NC2=O)c2ccccc21`, the GI50 was above 25000 nM and the TGI is above 25000 nM.
Regarding `Clc1ccc(-c2ccc(CNCC3CCNCC3)o2)c(-c2ccccc2)c1`, the GI50 was 1570 nM and the TGI amounted to 3250 nM.
`CN1CCN(Cc2ccc(NC(=O)c3cncc(C#Cc4cnc5ccc(N6CCN(C)CC6)nn45)c3)cc2C(F)(F)F)CC1`: the GI50 is 1380 nM and the TGI is 2760 nM.
Taken in the same sequence, the figures for `C[C@]12CC[C@@H]3c4ccc(O)cc4CC[C@H]3[C@@H]1CC[C@@H]2NS(=O)(=O)c1cccc(OC(F)(F)F)c1` were 2610 nM and 8010 nM.
Taken in the same sequence, the figures for `COC(=O)/C=C1/SC(=Nc2ccc(C(F)(F)F)cc2)N(CCc2c[nH]c3ccc(O)cc23)C1=O` were 2110 nM and 5720 nM.
Taken in the same sequence, the figures for `CCCOC(=O)c1ccc2c(c1)[N+](=O)C(C(=O)c1ccccc1)=C(C(F)(F)F)[N+]2=O` were 1710 nM and 3510 nM.
For `O=C1C=C(Nc2ccc([N+](=O)[O-])cc2)c2ccccc2C1=O`, the GI50 is 3050 nM and the TGI is 13400 nM.
`C=CCSSC1N=CNc2nc[nH]c21` (centres undefined): the GI50 was 319 nM and the TGI was determined as 14700 nM.
Regarding `CC(=O)Nc1cccc(C#Cc2cncnc2Nc2ccc(OCc3cccc(F)c3)c(Cl)c2)n1`, the GI50 is 557 nM and the TGI was above 6260 nM.
For `COc1ccc(C(O)c2cc3c(N)c(C(=O)Nc4ccc(Br)cc4)sc3nc2C)cc1` (centres undefined) the same measures were 2190 nM and 9090 nM.
Taken in the same sequence, the figures for `CCCc1n(Cc2ccc3ccccc3c2)c2ccccc2[n+]1Cc1ccc2ccccc2c1` were 130 nM and 716 nM.
With `COC(=O)C(=Cc1ccccc1[N+](=O)[O-])C(=O)OC`, the GI50 was 5030 nM and the TGI was 28200 nM.
Taken in the same sequence, the figures for `Nc1nonc1-c1nc2cnccc2n1C1CCCCC1` were 6940 nM and above 25000 nM.
Taken in the same sequence, the figures for `COc1cc(C(=O)/C=C/c2c(C)n([O-])c3ccc(C(F)(F)F)cc3[n+]2=O)cc(OC)c1OC` were 1590 nM and 3490 nM.
Taken in the same sequence, the figures for `CC/C(=C(\c1ccc(Cl)cc1)c1ccc(OCCN2CCCCC2)cc1)c1ccc(O)cc1` were 1650 nM and 3320 nM.
For the molecule `CCOC(=O)c1ccc2c(c1)c1c(C)c3cnccc3c(C)c1n2C`, the GI50 is 289 nM and the TGI amounted to 962 nM.
With `COC(=O)c1ccc2[nH]c(O)c(C(=Nc3ccc(N(C)C(=O)CN4CCN(C)CC4)cc3)c3ccc(OC)cc3)c2c1`, the GI50 was 1600 nM and the TGI was 3350 nM.
Take `CCN(CC)CCNc1ccc(C)c2sc3ccccc3c(=O)c12` (tested in a mixture with another compound): the GI50 is 2060 nM and 1980 nM; the TGI was 4220 nM and 4300 nM.
On to `O=C(/C=C/c1cccc(O)c1)c1cccc(-n2cc(-c3ccc(Cl)cc3)[nH]c2=O)c1`, for which the GI50 was 1700 nM and the TGI stood at 3830 nM.
As to `CC(=O)O[C@H]1C(=O)[C@@]2(C)[C@H]([C@H](OC(=O)c3ccccc3)[C@]3(O)C[C@H](OC(=O)[C@H](OC(=O)OC[C@@H]4COC(C)(C)O4)[C@@H](NC(=O)c4ccccc4)c4ccccc4)C(C)=C1C3(C)C)[C@]1(OC(C)=O)CO[C@@H]1C[C@@H]2O`, the GI50 was 28 nM.
On to `CCOC(=O)Nc1nc2cc(OC)c(OC)c(OC)c2s1`, for which the GI50 was above 100000 nM and the TGI was above 100000 nM.
With `CC(C)OC(=O)Nc1ccc(-c2nc(-c3cccc(OCCN4CCOCC4)c3)c(-c3ccnc(Br)c3)[nH]2)cc1`, the GI50 was 2010 nM and the TGI is 5300 nM.
Taken in the same sequence, the figures for `C=CC(=O)N1CC2(CCC(n3nc(-c4ccc(Oc5ccccc5)cc4)c4c(N)ncnc43)CC2)C1` were 244 nM and 1620 nM.
For `COc1ccc(C2C(C#N)=C(N)Oc3c2sc2c(C)cccc32)cc1` (centres undefined) the same measures were 214 nM and 641 nM.
Taken in the same sequence, the figures for `CC[C@H](Nc1cc(C)nc(N)n1)c1nc2cccc(NCc3ccc(C(=O)NO)cc3)c2c(=O)n1-c1ccccc1` were 1460 nM and 3240 nM.
Consider `Cc1ccc2c(c1)c(C1=C(c3cn(C)c4ccccc34)C(=O)NC1=O)cn2C`, for which the GI50 is 1030 nM and the TGI is above 12600 nM.
Turning to `Cc1ccc2cc3c(N)c4c(C)ccc(C)c4nc3nc2c1`, the GI50 was 1470 nM and the TGI is 3730 nM.
